For orientation: IC50 means the concentration that gives 50% inhibition.

The first data set concerns the target T1, CYP11A1 (Homo sapiens, UniProt P05108).
T1 construct: human H295R adrenocortical carcinoma cell line was used as source of enzyme; endogenous in cells; host or cells: H295R human adrenocortical carcinoma cells
T1 sequence (P05108 40-521): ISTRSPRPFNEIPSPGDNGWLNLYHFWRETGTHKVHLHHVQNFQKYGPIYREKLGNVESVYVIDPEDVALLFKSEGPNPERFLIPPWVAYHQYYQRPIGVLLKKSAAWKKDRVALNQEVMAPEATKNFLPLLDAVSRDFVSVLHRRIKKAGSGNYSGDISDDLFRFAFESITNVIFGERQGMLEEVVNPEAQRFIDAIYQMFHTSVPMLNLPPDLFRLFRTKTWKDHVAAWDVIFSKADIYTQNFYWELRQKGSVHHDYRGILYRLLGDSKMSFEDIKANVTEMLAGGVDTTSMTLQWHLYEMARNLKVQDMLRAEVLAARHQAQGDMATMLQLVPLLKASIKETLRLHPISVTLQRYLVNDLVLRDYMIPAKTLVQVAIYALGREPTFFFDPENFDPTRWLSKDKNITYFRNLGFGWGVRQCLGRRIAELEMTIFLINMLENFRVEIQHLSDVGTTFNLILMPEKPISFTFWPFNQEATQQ
The experiment in a line: CYP11A1 inhibition, isocaproic acid release assay (IARA) in H295R cells. The conditions noted are these: human H295R adrenocortical carcinoma cell line, three days, 3 nM [24,25-3H]-labelled cholesterol; read-out: IC50 on CYP11A1 inhibition (Group). Type of data set: cell-based. On the procedure: The ability of the test compounds to inhibit conversion of cholesterol to pregnenolone and isocaproic acid was measured by modification of isocaproic acid release assay (IARA) described by Ruangwises et al. (Biology of Reproduction 1991; 45(1):143-50) except that human H295R adrenocortical carcinoma cell line was used as source of enzyme and extraction was done with dextran-coated charcoal suspension (Isomaa, V. et al., Endocrinology 1982; 111(3):833-843). […] To determine the half maximal inhibitory concentration (IC50) of the test compounds on CYP11A1 inhibition, the cells were treated for three days with increasing concentrations of the test compounds in the presence of 3 nM [24,25-3H]-labelled cholesterol (American Radiolabelled Chemicals). The final DMSO concentration was 1%. Cell culture medium was extracted with dextran-coated charcoal suspension and the radiolabelled isocaproic acid was determined by mixing 100 μl of supernatant fraction in 200 μl of scintillation fluid (OptiPhase SuperMix, Perkin Elmer). Radioactivity was measured using a Microbeta scintillation counter (1450 MicroBeta Trilux, Wallac). All the test compounds were studied at 10 concentrations in duplicates.
In the case of `CN(C)C(=O)C1CCC(COc2ccc(CN3Cc4ccccc4C3)cc2S(C)(=O)=O)CC1` (stereo not drawn) [Compound 74, 4-((4-(Isoindolin-2-ylmethyl)-2-(methylsulfonyl)phenoxy)methyl)-N,N-dimethylcyclohexane-1-carboxamide], the IC50 was under 100 nM.

Regarding `CS(=O)(=O)c1cc(CN2Cc3ccccc3C2)ccc1OCC1CCN(S(=O)(=O)C2COC2)CC1` [Compound 75, 2-(3-(Methylsulfonyl)-4-((1-(oxetan-3-ylsulfonyl)piperidin-4-yl)methoxy)-benzyl)isoindoline], the IC50 was under 100 nM.

Consider `CCS(=O)(=O)c1ccc(COc2ccc(CN3Cc4ccccc4C3)cc2S(C)(=O)=O)cc1` [Compound 76, 2-(4-((4-(Ethylsulfonyl)benzyl)oxy)-3-(methylsulfonyl)benzyl)isoindoline], for which the IC50 was under 100 nM.

On to `CS(=O)(=O)c1cc(CN2Cc3ccccc3C2)ccc1OCc1ccc(S(=O)(=O)N2CC(O)C2)cc1` [Compound 77, 1-((4-((4-(Isoindolin-2-ylmethyl)-2-(methylsulfonyl)phenoxy)methyl)phenyl)-sulfonyl)azetidin-3-ol], for which the IC50 was under 100 nM.

For `CS(=O)(=O)c1cc(CN2Cc3ccccc3C2)ccc1OCc1ccc(C(=O)N=S(C)(C)=O)cc1` [Compound 78, N-(Dimethyl(oxo)-λ^6-sulfaneylidene)-4-((4-(isoindolin-2-ylmethyl)-2-(methyl-sulfonyl)phenoxy)methyl)benzamide], the 50% inhibitory concentration (IC50) was under 100 nM.

Turning to `CN(C)C(=O)[C@H]1CC[C@H](COc2ccc(CN3Cc4ccccc4C3)cc2S(C)(=O)=O)CC1` [Compound 79, (1r,4r)-4-((4-(Isoindolin-2-ylmethyl)-2-(methylsulfonyl)phenoxy)methyl)-N,N-dimethylcyclohexane-1-carboxamide], the IC50 is under 100 nM.

With `CS(=O)(=O)c1cc(CN2Cc3ccccc3C2)ccc1OCC1CCC(C(=O)N2CCC2)CC1` (stereo not drawn) [Compound 80, Azetidin-1-yl(4-((4-(isoindolin-2-ylmethyl)-2-(methylsulfonyl)phenoxy)-methyl)cyclohexyl)methanone], the IC50 was 101 to 200 nM.

As to `CS(=O)(=O)c1ccc(COc2ccc(CN3Cc4ccccc4C3)cc2S(C)(=O)=O)cc1F` [Compound 81, 2-(4-((3-Fluoro-4-(methylsulfonyl)benzyl)oxy)-3-(methylsulfonyl)benzyl)-isoindoline], the IC50 lay within 101 to 200 nM.

As to `CS(=O)(=O)c1ccc(COc2ccc(CN3Cc4ccccc4C3)cc2S(C)(=O)=O)cc1` [Compound 82, 2-(3-(Methylsulfonyl)-4-((4-(methylsulfonyl)benzyl)oxy)benzyl)isoindoline], the IC50 is under 100 nM.

On to `CS(=O)(=O)c1cc(CN2Cc3ccccc3C2)ccc1OCC1CCOCC1` [Compound 83, 2-(3-(Methylsulfonyl)-4-((tetrahydro-2H-pyran-4-yl)methoxy)benzyl)isoindoline], for which the IC50 is 201 to 2000 nM.

Take `CS(=N)c1ccc(COc2ccc(CN3Cc4ccccc4C3)cc2S(C)(=O)=O)cc1` (stereo not drawn) [Compound 84, (4-((4-(Isoindolin-2-ylmethyl)-2-(methylsulfonyl)phenoxy)methyl)phenyl)-(methyl)-λ^4-sulfanimine]: the IC50 is under 100 nM.

For `CS(=N)(=O)c1ccc(COc2ccc(CN3Cc4ccc(C(F)(F)F)cc4C3)cc2S(C)(=O)=O)cc1` (stereo not drawn) [Compound 85, Imino(methyl)(4-((2-(methylsulfonyl)-4-((5-(trifluoromethyl)isoindolin-2-yl)methyl)phenoxy)methyl)phenyl)-λ^6-sulfanone], the IC50 was under 100 nM.

With `CC(C)(O)c1ccc(COc2ccc(CN3Cc4ccccc4C3)cc2S(C)(=O)=O)cc1` [Compound 86, 2-(4-((4-(Isoindolin-2-ylmethyl)-2-(methylsulfonyl)phenoxy)methyl)phenyl)-propan-2-ol], the IC50 was under 100 nM.

Take `CC(=O)N1CCC(COc2ccc(CN3Cc4ccccc4C3)cc2S(C)(=O)=O)CC1` [Compound 87, 1-(4-((4-(Isoindolin-2-ylmethyl)-2-(methylsulfonyl)phenoxy)methyl)piperidin-1-yl)ethan-1-one]: the IC50 fell in the range of 201 to 2000 nM.

With `CO/N=C(\C)c1ccc2c(c1)CN(Cc1cc(=O)c(OCC3CCN(S(C)(=O)=O)CC3)co1)C2` [Compound 91, (E)-2-((5-(1-(Methoxyimino)ethyl)isoindolin-2-yl)methyl)-5-((1-(methylsulfonyl)piperidin-4-yl)methoxy)-4H-pyran-4-one], the IC50 was 101 to 200 nM.

With `CC(O)c1ccc(COc2ccc(CN3Cc4ccccc4C3)cc2S(C)(=O)=O)cc1` (stereo not drawn) [Compound 92b, 1-(4-((4-(Isoindolin-2-ylmethyl)-2-(methylsulfonyl)phenoxy)methyl)phenyl)-ethanol], the half-maximal inhibitory concentration (IC50) was under 100 nM.

Consider `CC(O)C1CCC(COc2ccc(CN3Cc4ccccc4C3)cc2S(C)(=O)=O)CC1` (stereo not drawn) [Compound 94, 1-(4-((4-(Isoindolin-2-ylmethyl)-2-(methylsulfonyl)phenoxy)methyl)cyclohexyl)ethan-1-ol], for which the IC50 fell in the range of 201 to 2000 nM.

Regarding `CS(=O)(=O)c1cc(CN2Cc3ccccc3C2)ccc1OCc1ccc([S@](C)(=N)=O)cc1` [Compound 95, (R)-Imino(4-((4-(isoindolin-2-ylmethyl)-2-(methylsulfonyl)phenoxy)methyl)-phenyl)(methyl)-λ^6-sulfanone], the IC50 is 101 to 200 nM.

Take `CS(=O)(=O)c1cc(CN2Cc3ccccc3C2)ccc1OCc1ccc([S@@](C)(=N)=O)cc1` [Compound 96, (S)-Imino(4-((4-(isoindolin-2-ylmethyl)-2-(methylsulfonyl)phenoxy)methyl)-phenyl)(methyl)-λ^6-sulfanone]: the IC50 was under 100 nM.

For `CC[S@](=N)(=O)c1ccc(COc2ccc(CN3Cc4ccccc4C3)cc2S(C)(=O)=O)cc1` [Compound 97, (S)-Ethyl(imino)(4-((4-(isoindolin-2-ylmethyl)-2-(methylsulfonyl)phenoxy)-methyl)phenyl)-λ^6-sulfanone], the IC50 was under 100 nM.

For `CC[S@@](=N)(=O)c1ccc(COc2ccc(CN3Cc4ccccc4C3)cc2S(C)(=O)=O)cc1` [Compound 98, (R)-Ethyl(imino)(4-((4-(isoindolin-2-ylmethyl)-2-(methylsulfonyl)phenoxy)-methyl)phenyl)-λ^6-sulfanone], the IC50 is under 100 nM.

On to `CS(=O)(=O)N1CCC(COc2coc(CN3Cc4ccccc4C4(CC4)C3)cc2=O)CC1` [Compound 103, 2-((1′H-Spiro[cyclopropane-1,4′-isoquinolin]-2′(3′H)-yl)methyl)-5-((1-(methyl-sulfonyl)piperidin-4-yl)methoxy)-4H-pyran-4-one], for which the IC50 was in the range of 201 to 2000 nM.

In the case of `CC(C)(O)c1ccc(COc2coc(CN3Cc4ccccc4C4(CCCC4)C3)cc2=O)cc1` [Compound 104, 2-((1′H-Spiro[cyclopentane-1,4′-isoquinolin]-2′(3′H)-yl)methyl)-5-((4-(2-hydroxypropan-2-yl)benzyl)oxy)-4H-pyran-4-one], the IC50 fell in the range of 101 to 200 nM.

On to `CS(=O)(=O)c1cc(CN2Cc3cccc(F)c3C2)ccc1OCC1CCN(S(C)(=O)=O)CC1` [Compound 105, 4-Fluoro-2-(3-(methylsulfonyl)-4-((1-(methylsulfonyl)piperidin-4-yl)methoxy)-benzyl)isoindoline], for which the IC50 is under 100 nM.

In another data set the target is recombinant human cytochrome P450 (CYP) CYP3A4 enzyme (Homo sapiens, UniProt P08684). Nature of the data set: Formation of reactive metabolites, trapping with GSH, KCN and SCA. Conditions: test compound 10 μM, recombinant human CYP3A4, NADPH, 1 hour, pH 7.4.
Sequence of recombinant human cytochrome P450 (CYP) CYP3A4 enzyme (P08684 whole entry): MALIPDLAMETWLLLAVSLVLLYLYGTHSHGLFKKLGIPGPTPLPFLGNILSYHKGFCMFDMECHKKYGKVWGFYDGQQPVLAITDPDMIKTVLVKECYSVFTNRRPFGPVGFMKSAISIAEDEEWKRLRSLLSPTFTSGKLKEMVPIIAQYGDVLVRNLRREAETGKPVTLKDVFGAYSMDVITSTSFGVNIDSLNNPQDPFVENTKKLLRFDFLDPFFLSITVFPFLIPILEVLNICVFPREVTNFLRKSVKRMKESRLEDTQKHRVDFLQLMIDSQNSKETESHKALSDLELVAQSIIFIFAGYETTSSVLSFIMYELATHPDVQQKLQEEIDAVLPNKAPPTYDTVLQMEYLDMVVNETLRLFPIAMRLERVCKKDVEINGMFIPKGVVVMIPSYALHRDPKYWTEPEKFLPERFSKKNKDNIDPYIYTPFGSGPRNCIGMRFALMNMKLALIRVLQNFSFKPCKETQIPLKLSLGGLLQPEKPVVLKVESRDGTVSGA
Description: Formation of reactive metabolites was studied as described in Grillo, M., Expert Opin. […] (2015), 11(8):1281-1302 by incubating test compounds with recombinant human cytochrome P450 (CYP) CYP3A4 enzyme in the presence of cofactor NADPH and trapping agents glutathione (GSH), potassium cyanide (KCN) and semicarbazide (SCA).
Compounds were dissolved in DMSO and diluted in phosphate buffer (pH 7.4) to obtain the final incubation concentration 1 or 10 μM. Compounds were incubated with one trapping agent (mixture of unlabelled and ^13C^15N-labelled trapper 1:1) at a time with cofactor NADPH (actual samples) and without NADPH (control samples). Incubation time was 1 hour. Samples at timepoint 0 min (before incubation) and 60 min (after incubation) were analysed using ultra high-pressure liquid chromatography (UHPLC) coupled with high-resolution mass spectrometry (HRMS). Tentative identification of trapped metabolites was based on accurate masses of protonated molecules and product ion spectra of found metabolites and accurate mass differences between unlabelled and labelled trapping agents reacted with reactive metabolites.
The metabolites were classified as “major” if the peak area after incubation was over 10% of parent peak area before incubation. If peak area was between 1% and 10%, metabolites were classified as “minor” and if peak area was less than 1%, metabolite was classified as “trace”.
As to `C[C@H](c1cc(=O)c(OCC2CCN(S(C)(=O)=O)CC2)co1)N1Cc2ccccc2[C@H]2C[C@H]21` (relative stereo) [Compound 24b, 5-((1-(Methylsulfonyl)piperidin-4-yl)methoxy)-2-((R*)-1-((1aR*,7bR*)-1,1a,3,7b-tetrahydro-2H-cyclopropa[c]isoquinolin-2-yl)ethyl)-4H-pyran-4-one], the “Number of CN trapped metabolites” value was 2 (trace), the “Number of GSH trapped metabolites” value stood at 0 and the “Number of SCA trapped metabolites” value was 0.

As to `CC(c1cc(=O)c(OCC2CCN(S(C)(=O)=O)CC2)co1)N1Cc2ccc(-c3ncco3)cc2C1` (stereo not drawn) [Compound 17b, 5-((1-(Methylsulfonyl)piperidin-4-yl)methoxy)-2-(1-(5-(oxazol-2-yl)isoindolin-2-yl)ethyl)-4H-pyran-4-one], the “Number of CN trapped metabolites” value was found to be 0, the “Number of GSH trapped metabolites” value is 0 and the “Number of SCA trapped metabolites” value is given as 1 (trace).

The values are drawn from patent publication US20230192677A1, “CYP11A1 INHIBITORS” (ORION CORPORATION, priority 2020, published 2023).
